Laboratory results: patent US5120750A, “Generation of 1,4-dihydropyridine derivatives” (priority 1990, dated 1992)
“Also recorded” adds a separate entry of the source. Where two headings read alike, the source gives them in different places.

Experiments:
[1] = tested on: angiotensin; test: In-vitro angiotensin inhibitory activity; format: biochemical; conditions: for Percent Inhibition (angiotensin inhibitory activity): in vitro; for angiotensin inhibitory activity (in words): general pharmacological screening
[2] = tested on: LTD4; test: LTD4 antagonistic activity (general pharmacological screening)
[3] = target: T1, calcium channel (Cavia porcellus, UniProt O35505); test: Calcium channel antagonist activity: inhibition of muscarinic receptor-mediated Ca2+-dependent contraction (carbachol) of guinea pig ileal longitudinal smooth muscle; format: cell-based; conditions: for relative potency as compared with Nifedipine: Nifedipine = reference
T1 construct: Longitudinal smooth muscle segments of 2 cm length were mounted under a resting tension; from tissue; host or cells: ileal longitudinal smooth muscle segments of male albino guinea pigs
T1 sequence (O35505 whole entry): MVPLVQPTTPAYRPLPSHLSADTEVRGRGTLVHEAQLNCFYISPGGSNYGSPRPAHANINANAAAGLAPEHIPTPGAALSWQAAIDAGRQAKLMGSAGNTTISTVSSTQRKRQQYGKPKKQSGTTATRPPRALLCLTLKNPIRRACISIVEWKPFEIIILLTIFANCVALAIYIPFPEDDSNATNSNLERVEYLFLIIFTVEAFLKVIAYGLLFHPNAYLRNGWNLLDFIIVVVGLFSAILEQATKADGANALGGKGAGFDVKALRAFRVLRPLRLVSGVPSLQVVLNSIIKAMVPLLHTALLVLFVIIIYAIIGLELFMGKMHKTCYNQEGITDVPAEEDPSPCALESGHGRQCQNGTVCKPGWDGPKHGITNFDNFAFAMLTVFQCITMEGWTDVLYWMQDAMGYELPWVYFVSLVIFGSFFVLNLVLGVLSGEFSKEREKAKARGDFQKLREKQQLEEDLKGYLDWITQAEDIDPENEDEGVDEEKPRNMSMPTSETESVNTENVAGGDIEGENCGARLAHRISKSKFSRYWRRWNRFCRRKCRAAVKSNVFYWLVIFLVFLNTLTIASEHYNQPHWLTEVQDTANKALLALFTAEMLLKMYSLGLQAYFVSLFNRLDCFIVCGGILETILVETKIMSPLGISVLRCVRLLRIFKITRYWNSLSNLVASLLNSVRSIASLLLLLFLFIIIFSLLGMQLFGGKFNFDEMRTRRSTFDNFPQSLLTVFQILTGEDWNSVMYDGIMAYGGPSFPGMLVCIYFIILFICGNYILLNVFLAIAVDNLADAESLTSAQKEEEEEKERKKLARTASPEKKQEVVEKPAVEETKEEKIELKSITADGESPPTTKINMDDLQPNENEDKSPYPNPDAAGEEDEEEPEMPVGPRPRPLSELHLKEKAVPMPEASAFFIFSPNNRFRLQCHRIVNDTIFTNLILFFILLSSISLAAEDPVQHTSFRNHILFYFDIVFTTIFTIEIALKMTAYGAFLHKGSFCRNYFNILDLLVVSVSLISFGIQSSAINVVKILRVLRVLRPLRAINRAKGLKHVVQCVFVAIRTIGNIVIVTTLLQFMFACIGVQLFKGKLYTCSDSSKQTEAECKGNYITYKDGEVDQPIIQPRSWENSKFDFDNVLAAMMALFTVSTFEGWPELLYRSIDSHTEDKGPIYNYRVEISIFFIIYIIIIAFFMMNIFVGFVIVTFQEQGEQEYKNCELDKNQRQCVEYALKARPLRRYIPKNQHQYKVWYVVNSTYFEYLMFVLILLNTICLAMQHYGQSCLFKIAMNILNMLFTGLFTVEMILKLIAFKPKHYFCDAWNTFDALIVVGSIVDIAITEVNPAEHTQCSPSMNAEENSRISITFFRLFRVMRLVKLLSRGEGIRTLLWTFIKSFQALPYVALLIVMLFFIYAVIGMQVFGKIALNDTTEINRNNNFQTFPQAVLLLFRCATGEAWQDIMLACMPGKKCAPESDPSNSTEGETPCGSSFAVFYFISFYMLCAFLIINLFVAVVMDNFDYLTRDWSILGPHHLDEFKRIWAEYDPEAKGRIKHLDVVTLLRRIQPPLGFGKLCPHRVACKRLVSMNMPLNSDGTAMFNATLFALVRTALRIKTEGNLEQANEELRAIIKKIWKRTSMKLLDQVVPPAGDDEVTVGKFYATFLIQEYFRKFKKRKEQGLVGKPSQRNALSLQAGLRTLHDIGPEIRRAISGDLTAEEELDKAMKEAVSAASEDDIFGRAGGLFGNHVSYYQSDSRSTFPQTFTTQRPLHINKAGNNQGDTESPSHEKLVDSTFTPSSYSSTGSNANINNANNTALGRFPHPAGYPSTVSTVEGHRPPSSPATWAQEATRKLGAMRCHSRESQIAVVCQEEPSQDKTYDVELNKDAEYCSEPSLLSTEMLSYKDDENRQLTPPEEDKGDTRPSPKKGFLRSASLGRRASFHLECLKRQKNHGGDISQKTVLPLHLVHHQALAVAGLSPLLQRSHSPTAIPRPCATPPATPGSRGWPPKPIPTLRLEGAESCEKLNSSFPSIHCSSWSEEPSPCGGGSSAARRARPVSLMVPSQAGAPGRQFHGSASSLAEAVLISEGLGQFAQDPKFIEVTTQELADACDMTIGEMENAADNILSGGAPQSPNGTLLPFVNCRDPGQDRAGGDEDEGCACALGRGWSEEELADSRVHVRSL
Description: Male albino guinea pigs (body weight 300-450 g) were sacrificed by decapitation. The intestine was removed above the ileo-caecal junction. Longitudinal smooth muscle segments of 2 cm length were mounted under a resting tension of 300-400 mg. […] The muscles were equilibrated for 1 h with a solution change every 15 min. Two successive control contractions were elicited at 15 min. intervals with 5×10^-7 M carbachol. The isometric contractions were recorded with a force displacement transducer (FT 03C) on a GRASS* physiograph. The means of the […] contractile responses was taken as the 100% value for the tonic (slow) component of the response. The muscle was washed with Hepes saline solution and was allowed to re-equilibrate. The calcium antagonist (test compound) was added ten min before the dose-response for carbachol was determined. The drug-induced inhibition of contraction was expressed as percent of control. The ID50 values were graphically determined from the concentration-response curves, in triplicate.

[4] = In-vivo (P.O.) anti-ulcer stress activity; conditions: for anti-ulcer stress Activity: P.O.; for anti-ulcer stressic activity (in words): general pharmacological screening
[5] = In-vivo (P.O.) anti-inflammatory activity; conditions: for anti-inflammatory Activity: P.O.
[6] = tested on: heart; test: Effect on heart rate
[7] = tested on: SHR Rat; test: Blood pressure and heart rate in SHR Rat; format: in vivo; conditions: 0.2 mg/Kg
[8] = tested on: heart muscle; test: Ionotropic effect on heart muscle; conditions: for heart contractile force: at concentrations which exhibit Ca-blocking effect in smooth muscles; for positive ionotropic effect on the heart: in the same concentration as on smooth muscle; for activation at 0.00325 µM: same concentration as smooth muscle relaxant (Compound 11: 3.25×10^-9 M), Compound 19 in the same condition, read-out: positive ionotropic effect on heart muscle
[9] = tested on: heart; conditions: J. Cardiovascular Pharmacology, 1987, 10 (Suppl. 1) S60-S65; cited from earlier work
[10] = guinea pig ileal longitudinal smooth muscle, carbachol, 37° C., triplicate, read-out: calcium channel antagonist act., inhib. act. on contractile response to CD ID50

With C[C@H](CS)C(=O)N1CCC[C@H]1C(=O)O [Captopril, reference compound] the “Percent Inhibition (angiotensin inhibitory activity)” value (“Percent Inhibition” for short) ([1]; 0.05 μg/ml) was 69%.
With COC(=O)C1=C(C)NC(C)=C(C(=O)OCCCCCCCc2cc(C)no2)C1c1cccc([N+](=O)[O-])c1 (centres unmarked) [Example 1, 3-[7-(3-Methylisoxazol-5-yl)heptyloxycarbonyl]-5-methoxycarbonyl-2,6-dimethyl-4-(3-nitrophenyl)-1,4-dihydropyridine] the “LTD4 antagonistic activity (in words)” value [2] was “very strong”, the IC50 [3, 10] was 3.84 nM and the “angiotensin inhibitory activity (in words)” value [1] was “very strong”. For the same compound, the “Percent Inhibition” value ([1]; 0.0025 μg) was 60%, the “Percent Inhibition” value ([1]; 0.01 μg/ml) was 93% and the “anti-ulcer stress Activity” value ([4]; 50 mg/kg) was 63%. The “anti-ulcer stressic activity (in words)” value [4] was “very strong”.
In the case of COC(=O)C1=C(C)NC(C)=C(C(=O)OCCCCCCCc2cc(C)no2)C1c1cccc(C(F)(F)F)c1 (centres unmarked) [Example 3, 3-[7-(3-Methylisoxazol-5-yl)heptyloxycarbonyl]-5-methoxycarbonyl-2,6-dimethyl-4-(3-trifluoromethylphenyl)-1,4-dihydropyridine], the IC50 [3, 10] is reported as 5.13 nM.
With COC(=O)C1=C(C)NC(C)=C(C(=O)OCCCCCCn2nc(C)cc2C)C1c1cccc([N+](=O)[O-])c1 (centres unmarked) [Example 5, 3-[6-(3,5-Dimethylpyrazol-1-yl)hexyloxycarbonyl]-5-methoxycarbonyl-2,6-dimethyl-4-(3-nitrophenyl) -1,4-dihydropyridine] the IC50 [3, 10] was 6.24 nM, the “anti-inflammatory Activity” value ([5]; 40 mg/kg) was 35% and the “anti-inflammatory activity (in words)” value ([5]; general pharmacological screening) was “very strong”. The “Percent Inhibition” value ([1]; 0.001 μg) was 58% and the “Percent Inhibition” value ([1]; 0.01 μg/ml) was 95%.
For COC(=O)C1=C(C)NC(C)=C(C(=O)OCCCCCCCc2nc(C)cs2)C1c1cccc([N+](=O)[O-])c1 (centres unmarked) [Example 11, 3-[7-(4-Methylthiazol-2-yl)heptyloxycarbonyl]-5-methoxycarbonyl-2,6-dimethyl-4-(3-nitrophenyl)-1,4-dihydropyridine], the “relative potency as compared with Nifedipine” value ([3]; smooth muscle) was 4.3, the IC50 ([3]; smooth muscle, read-out: IC50 as calcium antagonist in smooth muscle) was 3.25 ± 0.33 nM and the heart rate change [6] was “without changing the heart rate; also recorded: no effect on the heart”. The “heart rate change in SHR Rat” value [7] was “without changing the heart rate”, the heart contractile force [8] was “increase the heart contractile force; also recorded: increases cardia contractile force” and the “positive ionotropic effect on the heart” value [8] was “about 12%”. The activation at 0.00325 µM [8] was roughly 12%.
In the case of COC(=O)C1=C(C)NC(C)=C(C(=O)OCCCCCCCc2nc(C)cs2)C1c1cccc(C(F)(F)F)c1 (centres unmarked) [Example 13, 3-[7-(4-Methylthiazol-2-yl)heptyloxycarbonyl]-5-methoxycarbonyl-2,6-dimethyl-4-(3-trifluoromethylphenyl)-1,4-dihydropyridine], the “anti-inflammatory Activity” value ([5]; 25 mg/kg) is reported as 43%.
In the case of COC(=O)C1=C(C)NC(C)=C(C(=O)OCCCCCCCc2nc(C)cs2)C1c1cccc(Cl)c1 (centres unmarked) [Example 15, 3-[7-(4-Methylthiazol-2-yl)heptyloxycarbonyl]-5-methoxycarbonyl-2,6-dimethyl-4-(3-chlorophenyl)-1,4-dihydropyridine], the “LTD4 antagonistic activity (in words)” value [2] is reported as “very strong”, the IC50 [3, 10] is reported as 6.25 nM and the “angiotensin inhibitory activity (in words)” value [1] is reported as “very strong”. For the same compound, the “Percent Inhibition” value ([1]; 0.1 μg/ml) was 64%, the “anti-ulcer stress Activity” value ([4]; 40 mg/kg) was 63% and the “anti-ulcer stressic activity (in words)” value [4] was “very strong”.
With COC(=O)C1=C(C)NC(C)=C(C(=O)OCCCCCCCc2nc(C)cs2)C1c1cccc(Cl)c1Cl (centres unmarked) [Example 17, 3-[7-(4-Methylthiazol-2-yl)heptyloxycarbonyl]-5-methoxycarbonyl-2,6-dimethyl-4-(2,3-dichlorophenyl)-1,4-dihydropyridine] the IC50 [3, 10] was 48.1 nM.
Compound COC(=O)C1=C(C)NC(C)=C(C(=O)OCCCCCCSc2nc(C)cs2)C1c1cccc([N+](=O)[O-])c1 (centres unmarked) [Example 18, 3-[6-(4-Methylthiazol-2-yl)thiohexyloxycarbonyl]-5-methoxycarbonyl-2,6-dimethyl-4-(3-nitrophenyl)-1,4-dihydropyridine] has an IC50 [3, 10] of 5.48 nM.
With COC(=O)C1=C(C)NC(C)=C(C(=O)OCCCCCCS(=O)(=O)c2nc(C)cs2)C1c1cccc([N+](=O)[O-])c1 (centres unmarked) [Example 19, 3-[6-(4-Methylthiazol-2-yl)sulfonylhexyloxycarbonyl]-5-methoxycarbonyl-2,6-dimethyl-4-(3-nitrophenyl)-1,4-dihydropyridine] the IC50 [3, 10] was 5.81 nM, the “relative potency as compared with Nifedipine” value ([3]; smooth muscle) was 2.5 and the heart rate change [6] was “without changing the heart rate”. The heart contractile force [8] was “increase the heart contractile force”, the “positive ionotropic effect on the heart” value [8] was “about 22%” and the activation at 0.00325 µM [8] was 25%.
In the case of COC(=O)C1=C(C)NC(C)=C(C(=O)OCCCCCC[S+]([O-])c2nc(C)cs2)C1c1cccc([N+](=O)[O-])c1 (centres unmarked) [Example 20, 3-[6-(4-Methylthiazol-2-yl)sulfinylhexyloxycarbonyl]-5-methoxycarbonyl-2,6-dimethyl-4-(3-nitrophenyl)-1,4-dihydropyridine], the IC50 [3, 10] is reported as 15.4 nM.
For CCOC(=O)C1=C(C)NC(C)=C(C(=O)OC)C1c1cccc(Cl)c1Cl (centres unmarked) [Felodipine, 3-ethoxycarbonyl-5-methoxycarbonyl-4-(2,3-dichlorophenyl)-2,6-dimethyl-1,4-dihydropyridine], the “effect on heart rate (tachycardia)” value [9] is given as “creates tachycardia”.
For C[C@]12CCC(=O)C=C1CC[C@@H]1[C@@H]2[C@@H](O)C[C@@]2(C)[C@H]1CC[C@]2(O)C(=O)CO [Hydrocortisone, reference compound], the “anti-inflammatory Activity” value ([5]; 25 mg/kg) was 32%.
For CCCCC1C(=O)N(c2ccccc2)N(c2ccccc2)C1=O [Phenylbutazone, reference compound], the “anti-inflammatory Activity” value ([5]; 50 mg/kg) was 33%.
For CN1CCN(CC(=O)N2c3ccccc3C(=O)Nc3cccnc32)CC1 [Pirenzepine, reference compound], the “anti-ulcer stress Activity” value ([4]; 50 mg/kg) was 75%.
